Measured values from patent US20200080076A1, “Expressed Barcode Libraries and Uses Thereof” (The Broad Institute, Inc., priority 2018, published 2020).

What was measured:
OVCAR3 H2B-GFP cells = test: In vitro platinum-sensitive relapse model, live cell number by time-lapse imaging; format: cell-based; conditions: six days of treatment, FIG. 1C carboplatin 6.25 μM, FIG. 1D cisplatin 50 μM
Text: FIGS. 1A-1E show the in vitro modeling of non-inherited drug resistance. […] FIGS. 1B-1E show relapse dynamics. Length of drug treatments are indicated as red shaded areas within the graphs. […] While much effort has been focused on experimental models to study the emergence of platinum-resistance (Cunnea & Stronach, Front Oncol 4:81 (2014)), little attention has been given to the development of robust methods to model platinum-sensitive relapse. As the clinical classification of relapse is based both on the effectiveness of the treatment and the time to recurrence, the present study aimed to establish a system that can capture both these aspects. Analogous to the CA125 levels that are used to monitor disease progression in patients, direct measurement of cell number was used to monitor response in vitro. To this end, an OVCAR3 H2B-GFP cell line was generated. OVCAR3 is a commonly used HGSOC model and the H2B-GFP allows the easy quantification of the number of live cells during the course of drug treatment. […] This response was quantified based on time-lapse images and a striking similarity was found between the pattern of platinum-sensitive relapse observed in patients (FIG. 1B), as measured by CA125 levels, and the pattern observed in vitro in this study (FIG. 1C-D). […]

[1] = tested on: Watermelon-transduced PC-9 cells; test: Sensitivity of Watermelon-transduced PC-9 cells to EGFR-TKIs, number of mCherry objects; format: cell-based; conditions: varying concentrations (FIGS. 6B and 6C)
Text: FIGS. 6A-6D show the modeling of non-inherited drug resistance of PC-9 cells to EGFR tyrosine kinase inhibitors (EGFR-TKI).

SMILES	response of cells to platinum treatment (number of live cells) (OVCAR3 H2B-GFP cells)	sensitivity of cells to EGFR-TKI (number of mCherry objects) [1]
N.N.O=C([O-])C1(C(=O)[O-])CCC1.[Pt+2] [carboplatin]	the majority of cells died	–
N.N.[Cl][Pt][Cl] [cisplatin]	the majority of cells died	–
C=CC(=O)Nc1cc(Nc2nccc(-c3cn(C)c4ccccc34)n2)c(OC)cc1N(C)CCN(C)C [osimertinib]	–	sensitive
